This note sets out measurements from patent publication US20080226596A1, “Therapeutic compositions and methods useful in treating hepatitis” (priority 2006, published 2008).

One test concerns the target T1, MKP1 (Homo sapiens, UniProt P28562).
T1 construct: GST (N); made in house; host or cells: DH5a bacteria
T1 sequence (P28562 1-367): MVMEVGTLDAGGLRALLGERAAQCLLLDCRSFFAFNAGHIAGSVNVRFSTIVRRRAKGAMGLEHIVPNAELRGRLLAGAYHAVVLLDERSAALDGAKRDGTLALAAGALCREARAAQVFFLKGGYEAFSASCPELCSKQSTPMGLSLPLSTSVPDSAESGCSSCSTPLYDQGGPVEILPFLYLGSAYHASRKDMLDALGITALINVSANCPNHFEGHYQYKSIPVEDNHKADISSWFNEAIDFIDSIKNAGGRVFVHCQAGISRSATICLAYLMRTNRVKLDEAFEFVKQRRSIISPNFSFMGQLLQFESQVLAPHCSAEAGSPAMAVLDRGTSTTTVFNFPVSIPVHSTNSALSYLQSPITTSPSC
Briefly: In vitro PTPase assay, GST/MKP1. In kind it is biochemical. The procedure: (§1) In vitro PTPase activities were measured using the commercial protein tyrosine phosphatase assay kit (Upstate Biotechnology, Inc. (“UBI”)) following established procedure known to one of skill in the art. This assay measures the in vitro dephosphorylation of a synthetic phosphotyrosine peptide of the sequence Arg-Arg-Leu-Ile-Glu-Asp-Ala-Gle-Tyr-Ala-Ala-Arg-Gly, wherein the tyrosine is phosphorylated (SEQ ID NO: 3). Briefly, 0.01 µg of GST/PTPase fusion proteins was incubated in 50 μL of Tris buffer (10 mM Tris, pH 7.4) containing different concentrations of inhibitors or chemicals (0-1,000 μg/ml) at 22° C. for 10 minutes, followed by addition of 0.2 mM of the phosphotyrosine peptide and incubation at 22° C. for 18 hours. 100 μL of Malachite Green solution was added and incubated for 5 minutes, and the absorbance at 660 nm was measured after 5 minutes.
(§2) In vitro PTPase assays were used to determine the effects of levamisole (Sigma), pentamidine (American Pharmaceutical Partners, Inc.), and ketoconazole (Sigma) on recombinant PTPases, following established procedures (Pathak et al., J. Imumol. 167, 3391 (2001); Pathak et al., Leukemia 16, 2285 (2002), Yi et al., J. Immunol. 169, 5978 (2002)) using a synthetic phosphotyrosine peptide or DiFMUP as the substrate as detailed above in section I.A.2.

The next test concerns the target T2, SHP-1 (Mus musculus, UniProt P29351).
T2 construct: made in house
Briefly: In vitro PTPase assay, recombinant GST/SHP-1. The test is classed as biochemical. Conditions: for inhibitory activity against SHP-1: 3-4 μg/ml or 10-100 μg/ml. The procedure:
as §1
In vitro PTPase assays were used to determine the effects of compounds on recombinant PTPases, following established procedures using a synthetic phosphotyrosine peptide or DiFMUP as the substrate (Pathak et al., J. Imumol. 167, 3391 (2001)). Briefly, individual PTPases (0.1 µg/reaction) in 50 μL of PTPase buffer (50 mM Tris, pH 7.4) were incubated at 22° C. for 10 minutes or as indicated in the absence or presence of inhibitory compounds. Substrates (0.2 mM phosphotyrosine peptide) were then added and allowed to react at 22° C. for 18 hrs. PTPase activity of individual reactions was measured by adding 100 µL of malachite green solution (UBI) and then quantifying the amounts of free phosphate cleaved by the PTPase from the peptide substrate by spectrometry (OD660 nm). PTPase assays using DiFMUP as a substrate were conducted following a previously described procedure (Matter, et al., Biochem. Biophys. Res. Comm. 283, 1061 (2001)). Relative PTPase activities were calculated based on the formula: (PTPase activity in the presence of an inhibitory compound/PTPase activity in the absence of the compound)× 100%. To assess the reversibility of PTPase inhibition, GST fusion proteins of the PTPases bound on glutathione beads (Pharmacia) were pre-incubated with cold Tris buffer (50 mM Tris, pH 7.0) or Tris buffer containing the inhibitor at 4° C. for 30 minutes. The beads were then washed three times in cold Tris buffer or not washed prior to subjecting to in vitro PTPase assays.
as §2

Entries after “also recorded” stand apart in the source; their conditions may differ.

T2 sequence (P29351 whole entry): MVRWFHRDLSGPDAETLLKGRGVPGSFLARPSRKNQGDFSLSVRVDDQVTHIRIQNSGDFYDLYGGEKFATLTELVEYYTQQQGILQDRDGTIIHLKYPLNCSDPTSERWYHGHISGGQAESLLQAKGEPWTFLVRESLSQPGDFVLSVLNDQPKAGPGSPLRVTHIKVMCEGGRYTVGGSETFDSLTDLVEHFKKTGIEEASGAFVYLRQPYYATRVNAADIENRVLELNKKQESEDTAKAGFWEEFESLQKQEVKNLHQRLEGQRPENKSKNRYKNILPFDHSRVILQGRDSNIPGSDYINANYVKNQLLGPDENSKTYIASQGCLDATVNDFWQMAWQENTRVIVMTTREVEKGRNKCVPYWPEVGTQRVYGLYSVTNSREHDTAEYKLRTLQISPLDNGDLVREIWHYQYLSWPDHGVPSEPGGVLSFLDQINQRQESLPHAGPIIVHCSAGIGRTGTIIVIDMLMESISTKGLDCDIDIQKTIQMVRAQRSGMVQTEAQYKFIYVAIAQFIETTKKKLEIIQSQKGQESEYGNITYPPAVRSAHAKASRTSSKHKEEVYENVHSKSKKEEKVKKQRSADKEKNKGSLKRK

Take `O.O.O.O.O.O.O.O.O.O=C([O-])[C@@H]1[O][Sb]2([O-])([O][Sb]34([OH])[O][C@H]([C@H](O)CO)[C@H]([O]3)[C@H](C(=O)[O-])[O]4)[O][C@H]([C@H](O)CO)[C@@H]1[O]2.[Na+].[Na+].[Na+]` [sodium stibogluconate]: on MKP1, the “inhibition of MKP1” value was “no obvious effects” and the “inhibitory activity against MKP1” value is “no obvious inhibitory activity”. At SHP-1 (10 μg/ml), the “SHP-1 phosphatase activity” value is “almost completely inhibited; also recorded: inactivated SHP-1”.
On to `CC(=O)N1CCN(c2ccc(OCC3COC(Cn4ccnc4)(c4ccc(Cl)cc4Cl)O3)cc2)CC1` (stereo not shown) [ketoconazole], for which, at MKP1, the “inhibition of MKP1” value is on record as “substantial inhibition”. For the same molecule, the “inhibitory activity against SHP-1” value on SHP-1 is given as “no obvious inhibitory activity”.
On the same counts, the results for `N=C(N)c1ccc(OCCCCCOc2ccc(C(=N)N)cc2)cc1` [pentamidine] are “substantial inhibition” and “no obvious inhibitory activity”.
